In this test the test system is BDF1 mice, P388 leukemia ip, median survival T/C. Kind of test: NCI In Vivo Anticancer Drug Screen. Data for tumor model P388 Leukemia (intraperitoneal) in B6D2F1 (BDF1) mice. Conditions: endpoint: median survival time, higher = longer survival. An outline of the steps:
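Survival ratio, drug arm over vehicle arm, in mice with a transplanted tumour.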

The mark [1] stands for this setting: dose: 50.0 mg/kg/injection, schedule: Q01DX009 (ip), vehicle: saline.
[2] abbreviates: dose: 100.0 mg/kg/injection, schedule: Q01DX009 (ip), vehicle: saline.
The mark [3] stands for this setting: dose: 100.0 mg/kg/injection, schedule: Q04DX003 (ip), vehicle: saline.
Where [4] appears, read: dose: 200.0 mg/kg/injection, schedule: Q01DX009 (ip), vehicle: saline.
Setting [5] is: dose: 200.0 mg/kg/injection, schedule: Q04DX003 (ip), vehicle: saline.
[6] abbreviates: dose: 400.0 mg/kg/injection, schedule: Q04DX003 (ip), vehicle: saline.
[7] abbreviates: dose: 12.5 mg/kg/injection, schedule: Q01DX009 (ip), vehicle: saline with Tween-80.
The mark [8] stands for this setting: dose: 50.0 mg/kg/injection, schedule: Q01DX009 (ip), vehicle: saline with Tween-80.
The mark [9] stands for this setting: dose: 200.0 mg/kg/injection, schedule: Q01DX001 (ip), vehicle: saline with Tween-80.
Where [10] appears, read: dose: 100.0 mg/kg/injection, schedule: Q04DX002 (ip), vehicle: saline with Tween-80.
Setting [11] is: dose: 12.5 mg/kg/injection, schedule: Q01DX009 (ip), vehicle: Klucel (hydroxypropylcellulose) (HPC).
Where [12] appears, read: dose: 25.0 mg/kg/injection, schedule: Q01DX009 (ip), vehicle: Klucel (hydroxypropylcellulose) (HPC).
Where [13] appears, read: dose: 50.0 mg/kg/injection, schedule: Q01DX009 (ip), vehicle: Klucel (hydroxypropylcellulose) (HPC).
Setting [14] is: dose: 100.0 mg/kg/injection, schedule: Q04DX003 (ip), vehicle: Klucel (hydroxypropylcellulose) (HPC).

T/C data for 21 molecules are collected here from PubChem BioAssay AID328 (DTP/NCI, 2004).

“And” between values parts separate entries of the source, which are not always exact repeats. Identical values can stand only once. Inconclusive results and toxic doses are left out.

On to `O=C1CC=C(Nc2ccc(Br)cc2)C(=O)O1`, for which the T/C is, setting by setting: (dose: 25.0 mg/kg/injection, schedule: Q01DX009 (ip), vehicle: saline) 99 % of control; under setting [1], 101 % of control; under setting [2], 105 % of control; under setting [3], 112 % of control; under setting [4], 92 % of control; under setting [5], 91 % of control. Moreover, the T/C was 99 % of control (dose: 400.0 mg/kg/injection, schedule: Q01DX009 (ip), vehicle: saline) and 107 % of control under setting [6].
Consider `Clc1ccc(CBr)c2ccccc12`, for which the T/C runs as follows: under setting [7], 108 % of control; (dose: 25.0 mg/kg/injection, schedule: Q01DX009 (ip), vehicle: saline with Tween-80) 106 % of control; under setting [8], 110 % of control.
Consider `OCC(Br)(Br)Br`, for which the T/C was 95 % of control (dose: 100.0 mg/kg/injection, schedule: Q01DX009 (ip), vehicle: other) and 95 % of control (dose: 200.0 mg/kg/injection, schedule: Q01DX009 (ip), vehicle: other).
Regarding `O=S(=O)(CS(=O)(=O)C(F)(F)C(F)(F)C(F)(F)C(F)(F)F)C(F)(F)C(F)(F)C(F)(F)C(F)(F)F`, the T/C runs as follows: under setting [1], 114 % of control; under setting [2], 114 % of control; under setting [4], 106 % of control.
As to `O=C(Nc1ccccc1C(F)(F)F)Nc1cccc2ccccc12`, the T/C is, setting by setting: under setting [9], 90 % of control; (dose: 400.0 mg/kg/injection, schedule: Q01DX001 (ip), vehicle: saline with Tween-80) 86 % of control.
Consider `CC(CO)S(=O)(=O)C(C)(C)C` (stereo unspecified), for which the T/C was 94 % of control under setting [3], 95 % of control under setting [5] and 94 % of control under setting [6].
As to `c1ccc(C2CCCCCC2)cc1`, the T/C under setting [2] was 110 % of control; the T/C under setting [3] is 100 % of control; the T/C (dose: 166.0 mg/kg/injection, schedule: Q01DX009 (ip), vehicle: saline) is 110 % of control; the T/C under setting [4] is 105 % of control; the T/C under setting [5] is 90 % of control; the T/C under setting [6] was 100 % of control.
In the case of `CCCCCCCCCCCCCCCC(=O)OCCCCCCCCCCCCC`, the T/C (dose: 25.0 mg/kg/injection, schedule: Q04DX003 (ip), vehicle: saline with Tween-80) is 100 % of control; the T/C (dose: 50.0 mg/kg/injection, schedule: Q04DX003 (ip), vehicle: saline with Tween-80) is 100 % of control; the T/C (dose: 100.0 mg/kg/injection, schedule: Q04DX003 (ip), vehicle: saline with Tween-80) was 105 % of control.
As to `COC1C(C)OC(OC2CC(C)(O)Cc3cc4c(c(O)c32)C(=O)c2c(O)cc3c(c2C4=O)OC2OC3(C)C(O)C(N(C)C)C2O)C(OC)C1(C)OC` (stereo unspecified), the T/C reads like this: (dose: 1.25 mg/kg/injection, schedule: Q01DX009 (ip), vehicle: other) 122 % of control; (dose: 4.32 mg/kg/injection, schedule: Q04DX003 (ip), vehicle: water) 169 % of control; (dose: 5.0 mg/kg/injection, schedule: Q01DX009 (ip), vehicle: other) 154 % of control; (dose: 7.2 mg/kg/injection, schedule: Q04DX003 (ip), vehicle: water) 183 % of control; (dose: 10.0 mg/kg/injection, schedule: Q01DX009 (ip), vehicle: other) 151 % of control; (dose: 20.0 mg/kg/injection, schedule: Q04DX003 (ip), vehicle: water) 111 % of control.
For the molecule `CCOC(=O)C1CCCN1C(=O)c1c2nc3c(C(=O)N4CCCC4C(=O)OCC)ccc(C)c3oc-2c(C)c(=O)c1N` (stereo unspecified), the T/C by setting is: under setting [10], 90 % of control; (dose: 200.0 mg/kg/injection, schedule: Q04DX002 (ip), vehicle: saline with Tween-80) 101 % of control; (dose: 400.0 mg/kg/injection, schedule: Q04DX002 (ip), vehicle: saline with Tween-80) 90 % of control.
In the case of `Cc1ccnc(NC(=O)Nc2cc(Cl)ccc2Cl)c1`, the T/C under setting [11] was 101 % of control, the T/C under setting [12] was 103 % of control and the T/C under setting [13] was 120 % of control.
Take `Cc1nc(Cl)c(C#N)c(C)c1Cl`: the T/C reads like this: (dose: 50.0 mg/kg/injection, schedule: Q01DX005 (ip), vehicle: saline with Tween-80) 97 % of control; (dose: 100.0 mg/kg/injection, schedule: Q01DX005 (ip), vehicle: saline with Tween-80) 92 % of control; (dose: 200.0 mg/kg/injection, schedule: Q01DX005 (ip), vehicle: saline with Tween-80) 94 % of control.
For `O=C(O/N=C1\C2CCC(C2)C1Cl)c1ccc([N+](=O)[O-])cc1` (stereo unspecified), the T/C is 100 % of control (dose: 12.5 mg/kg/injection, schedule: Q04DX003 (ip), vehicle: saline); 96 % of control (dose: 25.0 mg/kg/injection, schedule: Q04DX003 (ip), vehicle: saline); 103 % of control (dose: 50.0 mg/kg/injection, schedule: Q04DX003 (ip), vehicle: saline).
For `O=[N+]([O-])c1cccc2c[n+](Cc3ccccc3)ccc12`, under setting [7], the T/C was 117 % of control.
As to `NCC(O)CSc1ccc(Cl)c(Cl)c1` (stereo unspecified), the T/C (dose: 50.0 mg/kg/injection, schedule: Q04DX002 (ip), vehicle: saline with Tween-80) is 98 % of control and the T/C under setting [10] is 106 % of control.
Consider `COC1=C[C@H](C)[C@H]2C[C@@H]3OC(=O)CC[C@@H]3C[C@]2(C)C1=O`, for which the T/C is, setting by setting: (dose: 2.0 mg/kg/injection, schedule: Q01DX009 (ip), vehicle: saline + alcohol) 115 % of control; (dose: 4.0 mg/kg/injection, schedule: Q01DX009 (ip), vehicle: saline + alcohol) 106 % of control; (dose: 8.0 mg/kg/injection, schedule: Q01DX009 (ip), vehicle: saline + alcohol) 106 % of control; (dose: 16.0 mg/kg/injection, schedule: Q01DX009 (ip), vehicle: saline + alcohol) 103 % of control.
Take `CCCCCCCCCCC[N+](C)(C)CCCCCC[N+](C)(C)CCCCCCCCCCC`: the T/C was 90 % of control and 108 % of control (dose: 1.56 mg/kg/injection, schedule: Q01DX009 (ip), vehicle: saline); 103 % of control (dose: 3.12 mg/kg/injection, schedule: Q01DX009 (ip), vehicle: saline); 102 % of control and 118 % of control (dose: 3.13 mg/kg/injection, schedule: Q01DX009 (ip), vehicle: saline); 115 % of control and 124 % of control (dose: 6.25 mg/kg/injection, schedule: Q01DX009 (ip), vehicle: saline); 93 % of control and 109 % of control (dose: 12.5 mg/kg/injection, schedule: Q01DX009 (ip), vehicle: saline).
In the case of `COC(OC)C1=C(Cl)C(Cl)=C(Cl)/C1=N\Nc1ccccc1`, the T/C (dose: 100.0 mg/kg/injection, schedule: Q01DX001 (ip), vehicle: saline with Tween-80) is 109 % of control and the T/C under setting [9] was 86 % of control.
Consider `C[C@H]1CC2=CC(=O)CC[C@]2(C)[C@H]2CC[C@@]3(C)[C@@H](CC[C@]3(C)O)[C@H]12`, for which the T/C was 100 % of control (dose: 100.0 mg/kg/injection, schedule: Q01DX009 (ip), vehicle: Klucel (hydroxypropylcellulose) (HPC)); 100 % of control under setting [14]; 105 % of control (dose: 200.0 mg/kg/injection, schedule: Q01DX009 (ip), vehicle: Klucel (hydroxypropylcellulose) (HPC)); 95 % of control (dose: 200.0 mg/kg/injection, schedule: Q04DX003 (ip), vehicle: Klucel (hydroxypropylcellulose) (HPC)); 100 % of control (dose: 400.0 mg/kg/injection, schedule: Q04DX003 (ip), vehicle: Klucel (hydroxypropylcellulose) (HPC)).
For `O=[N+]([O-])/C=C/c1ccc([N+](=O)[O-])cc1Cl`, the T/C by setting is: under setting [11], 109 % of control; under setting [12], 109 % of control; (dose: 25.0 mg/kg/injection, schedule: Q04DX003 (ip), vehicle: Klucel (hydroxypropylcellulose) (HPC)) 115 % of control; under setting [13], 104 % of control; (dose: 50.0 mg/kg/injection, schedule: Q04DX003 (ip), vehicle: Klucel (hydroxypropylcellulose) (HPC)) 107 % of control; under setting [14], 88 % of control.
Turning to `O=C(/C=C/c1ccc(OCc2ccccc2)cc1)c1ccc(Cl)cc1Cl`, the T/C is 91 % of control under setting [8]; 89 % of control (dose: 100.0 mg/kg/injection, schedule: Q01DX009 (ip), vehicle: saline with Tween-80); 89 % of control (dose: 200.0 mg/kg/injection, schedule: Q01DX009 (ip), vehicle: saline with Tween-80).
